Reference: publication PMC11876276, “LC–MS/MS quantification of bacterial and fungal signal peptides via direct injection: a case study of cross-kingdom communication” (Analytical and Bioanalytical Chemistry, 2025)

Assay: Peptide stability in fresh culture media (W0, MV, EMM)
Format: physicochemical
Method: Stability of the peptides was analyzed in freshly prepared media and in the supernatant from yeast cultivations in W0 and MV media. For this purpose, the yeast cultivations were initiated in 10 mL media with an optical density (OD600nm) of 1 and were cultivated for 24 h at 30 °C with continuous shaking. Subsequently, 2 mL of the culture was sampled and centrifuged at 5000 × g for 5 min. The resulting supernatant was removed and stored at -20 °C until LC–MS analysis. To study the time-dependent peptide stability, yeast supernatant and fresh culture medium with a volume of 900 µL each were spiked with 100 µL of a synthetic peptide mixture containing 10 µM of each α-factor and CSF in HPLC-grade water with 0.125% FA. The samples were analyzed immediately after sampling and subsequently over seven 3h intervals, in order to determine the remaining peptide concentrations. […]
The stability of the peptides also depends on their rate of enzymatic conversation through the action of proteases or peptidases (see review) secreted by cells during the cultivation. Therefore, the concentration of a peptide mixture (containing both α-factor and CSF) was monitored over a period of at least 18 h in the presence of fresh culture media or the supernatant of cultured yeast cells (harvested after 24 h). […]

| Substance | Peptide stability in EMM media (typical EMM media used for S. pombe, without and with 50 % ACN, LC-MS/MS, Fig. S7) | Concentration over 18 h in fresh culture media (fresh W0 pH = 5.6 or MV pH = 6.5, 1 µM peptide, glass vessels, 3 h intervals, LC-MS/MS normalized peak area, Fig. S5) |
| --- | --- | --- |
| TYADFL RAYQSW NTFVNP DRPNL [P-factor, pheromone from S. pombe, obtained from Davids Biotechnologie] | demonstrated |  |
| WHWLQLKPQPMY [α-factor, signal peptide (pheromone) from S. cerevisiae, ordered from UMEX GmbH] |  | remained nearly constant |
